According to patent US10213450B2, “Combination of biologically active substances for treatment of hyperglycaemic disorders” (BioActive Food GmbH, priority 2014, dated 2019):

Key:
[1] = target: T1, lactase phlorizin hydrolase (LPH) (Homo sapiens, UniProt P09848); assay: In vitro inhibition of LPH, phlorizin dihydrate as substrate, released glucose measured; assay type: biochemical
T1 construct: tissue of the human small intestine (0.6 mg/ml) expressing the LPH was used; from tissue; host or cells: human small intestine tissue
T1 sequence (P09848 869-1927): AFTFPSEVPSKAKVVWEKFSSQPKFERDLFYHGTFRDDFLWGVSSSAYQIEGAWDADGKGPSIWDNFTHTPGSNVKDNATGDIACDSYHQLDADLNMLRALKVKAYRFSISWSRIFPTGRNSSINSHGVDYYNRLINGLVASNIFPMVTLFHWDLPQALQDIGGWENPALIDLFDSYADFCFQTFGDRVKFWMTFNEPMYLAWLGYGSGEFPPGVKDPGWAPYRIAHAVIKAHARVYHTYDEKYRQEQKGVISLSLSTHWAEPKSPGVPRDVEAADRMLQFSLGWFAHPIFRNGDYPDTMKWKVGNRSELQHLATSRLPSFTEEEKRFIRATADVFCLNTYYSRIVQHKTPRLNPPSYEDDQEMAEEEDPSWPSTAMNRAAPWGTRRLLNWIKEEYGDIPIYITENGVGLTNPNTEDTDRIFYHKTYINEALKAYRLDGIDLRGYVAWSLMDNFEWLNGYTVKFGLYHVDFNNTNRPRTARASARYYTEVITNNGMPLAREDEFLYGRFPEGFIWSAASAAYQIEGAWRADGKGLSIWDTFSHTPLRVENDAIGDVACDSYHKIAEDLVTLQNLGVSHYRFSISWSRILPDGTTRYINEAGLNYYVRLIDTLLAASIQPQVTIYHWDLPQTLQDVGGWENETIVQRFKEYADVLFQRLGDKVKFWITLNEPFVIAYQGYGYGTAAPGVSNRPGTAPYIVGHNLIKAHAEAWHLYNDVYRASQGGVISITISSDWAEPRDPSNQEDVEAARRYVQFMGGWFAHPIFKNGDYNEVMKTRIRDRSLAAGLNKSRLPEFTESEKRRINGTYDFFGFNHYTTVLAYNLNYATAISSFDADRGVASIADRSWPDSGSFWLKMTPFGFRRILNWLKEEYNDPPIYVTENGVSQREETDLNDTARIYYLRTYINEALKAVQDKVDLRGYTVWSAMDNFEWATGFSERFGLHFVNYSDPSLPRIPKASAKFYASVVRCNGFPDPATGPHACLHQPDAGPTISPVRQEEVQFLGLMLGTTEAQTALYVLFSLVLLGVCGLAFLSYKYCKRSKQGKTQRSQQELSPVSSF
Experimental: Various quercetin and kaempferol derivates were tested in vitro as inhibitors of lactase phlorizin hydrolase (LPH). The testing was carried out according to Amiri et al. (2012, J Inherit Metab Dis, 35(6): 949-54). Here, tissue of the human small intestine (0.6 mg/ml) expressing the LPH was used. Phlorizin dihydrate served as the substrate. The released glucose was measured using a standard assay (Chu & Cheung, 1978, Clin Biochem, 11(4): 187-9).

[2] = target: T2, human SGLT1 (Homo sapiens, UniProt P13866); assay: Ex vivo model: incubation with LPH-expressing human small intestine brush border membranes, then SGLT1 activity of supernatants by two-electrode voltage-clamp in Xenopus oocytes; assay type: cell-based; details: LPH inhibitor 10 μg/ml alone
T2 construct: expressed in transfected cells; host or cells: Xenopus oocytes
T2 sequence (P13866 1-664): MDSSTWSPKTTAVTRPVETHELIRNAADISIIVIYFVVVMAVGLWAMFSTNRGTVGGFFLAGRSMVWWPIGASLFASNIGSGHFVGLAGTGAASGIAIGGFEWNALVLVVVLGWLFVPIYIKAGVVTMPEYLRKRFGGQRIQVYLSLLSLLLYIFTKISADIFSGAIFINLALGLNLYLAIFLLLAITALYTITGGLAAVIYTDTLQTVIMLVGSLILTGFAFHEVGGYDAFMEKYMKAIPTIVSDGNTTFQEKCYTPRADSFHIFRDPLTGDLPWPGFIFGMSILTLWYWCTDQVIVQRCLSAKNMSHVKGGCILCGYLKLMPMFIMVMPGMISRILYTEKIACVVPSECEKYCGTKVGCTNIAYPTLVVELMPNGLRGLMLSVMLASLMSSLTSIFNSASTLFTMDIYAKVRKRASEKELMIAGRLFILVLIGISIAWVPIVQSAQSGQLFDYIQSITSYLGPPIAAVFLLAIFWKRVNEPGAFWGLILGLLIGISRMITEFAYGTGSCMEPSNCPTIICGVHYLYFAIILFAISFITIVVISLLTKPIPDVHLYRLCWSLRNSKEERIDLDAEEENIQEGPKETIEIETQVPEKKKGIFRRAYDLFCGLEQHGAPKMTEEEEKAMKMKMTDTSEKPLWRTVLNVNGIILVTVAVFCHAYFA
Experimental: The effect of a combination of phlorizin and a LPH inhibitor on the uptake of glucose by the SGLT 1 transporter was tested with an ex vivo model that simulates the situation in the human intestine. The ex vivo test model uses tissue from the human small intestine which expresses the lactase phlorizin hydrolase (LPH) and is thus able to cleave phlorizin and other glycosides. Subsequently, the reaction batches that had been pre-processed in this way were tested in an in vitro assay for their inhibitory effect on the SGLT1 transporter.
In summary, so-called “brush border membranes” were prepared from the small intestine and incubated in an appropriate buffer with phlorizin and/or the respective LPH inhibitor for 90 minutes.
Here, Xenopus oocytes were used which express the human SGLT1. The transport of glucose by SGLT1 can be measured because the combined transport of glucose and sodium by SGLT1 causes a current through the oocyte membrane. This current is determined electrophysiologically by a “two-electrode voltage-clamp” method. In this model, a reduction in the activity of the SGLT1 also results in a reduction of current across the cell membrane.

Row | inhibition of the LPH ([1]; concentration of 50 mg/ml (as printed in text)) | Glucose uptake, inhibition ([2]; Batch A) | Glucose uptake, inhibition ([2]; Batch B) | inhibition at 100 µg/mL ([1]; 100 μg/ml inhibitor (stated in cell)) | Structure (SMILES)
1 | about 70% | 2% | 2.5% | – | O=c1c(O)c(-c2ccc(O)c(O)c2)oc2cc(OC3O[C@H](CO)[C@@H](O)[C@H](O)[C@H]3O)cc(O)c12 (stereo partly shown) [No. 3, 3,3′,4′,5,7-pentahydroxy flavone-7-glucoside]
2 | – | – | – | 13.7% | O=c1c(OC2O[C@H](CO)[C@@H](O)[C@H](O)[C@H]2O)c(-c2ccc(O)c(O)c2)oc2cc(O)cc(O)c12 (stereo partly shown) [compound 2]
